Reference: patent US20260347373A1, “HETEROCYCLIC COMPOUNDS, COMPOSITIONS THEREOF, AND METHODS OF TREATMENT THEREWITH” (BeOne Medicines I GmbH, priority 2023, published 2026)
Structures can show the parent of a compound that is named as a salt. Where two headings read alike, the source gives them in different places.

Experiments:
[1] = target: WT KRAS (Homo sapiens, UniProt P01116); assay: KRAS WT Probe Displacement Assay (TR-FRET, GDP-loaded); type: binding
Text: (§1) The synthetic routes of probe 1 and 2, which have been disclosed in PCT/CN2022/070676, are hereby incorporated herein.

[2] = target: KRAS G12D (Homo sapiens, UniProt P01116, G12D); assay: KRAS G12D Probe Displacement Assay (TR-FRET, GDP-loaded); type: binding
Chain of KRAS G12D (P01116 1-188 isoform P01116-2 G12D): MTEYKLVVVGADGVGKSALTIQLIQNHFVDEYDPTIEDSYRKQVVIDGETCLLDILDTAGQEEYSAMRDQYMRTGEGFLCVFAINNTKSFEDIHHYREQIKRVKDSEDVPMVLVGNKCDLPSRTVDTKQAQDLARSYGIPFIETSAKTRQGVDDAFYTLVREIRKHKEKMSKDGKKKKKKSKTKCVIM
Text: as §1

[3] = KRAS WT, read-out: KRAS^WT Probe Displacement Assay IC50
[4] = KRAS G12D, read-out: KRAS^G12D Probe Displacement Assay IC50
[5] = KRAS^WT Probe Displacement Assay IC50, KRAS WT
[6] = KRAS^G12D Probe Displacement Assay IC50, KRAS G12D

Chain of WT KRAS (P01116 1-188 isoform P01116-2): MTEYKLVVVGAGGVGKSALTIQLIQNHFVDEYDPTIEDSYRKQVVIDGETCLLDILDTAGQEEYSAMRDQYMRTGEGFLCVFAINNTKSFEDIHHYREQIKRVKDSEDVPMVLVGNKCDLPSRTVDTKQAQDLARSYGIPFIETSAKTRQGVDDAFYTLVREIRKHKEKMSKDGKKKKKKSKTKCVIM

Compound	IC50 [1, 3]	IC50 [2, 4]	IC50 [1, 5]	IC50 [2, 6]
CN(C)CC1(COc2nc3c4c(nc(-c5cc(N)cc(Cl)c5C(F)(F)F)c(F)c4n2)OCC[C@@H]2[C@@H]4CC[C@H](CN32)N4)CC1(F)F (mixture of isomers) [Example 18, 3-chloro-5-((6aR,7S,10R)-13-((1-((dimethylamino)methyl)-2,2-difluorocyclopropyl)methoxy)-1-fluoro-5,6,6a,7,8,9,10,11-octahydro-4-oxa-3,11a,12,14,15-pentaaza-7,10-methanocyclohepta[4,5]cycloocta [1,2,3-de]naphthalen-2-yl)-4-(trifluoromethyl)aniline]	3 to 1000 nM	< 0.3 nM		
Cc1cc(N)cc(-c2nc3c4c(nc(OCC5(CN6CCC7(CCOC7)C6)CC5)nc4c2F)N2C[C@H]4CC[C@H](N4)[C@H]2CCO3)c1C(F)(F)F (stereo partly drawn) [Example 188, 3-((6aR,7S,10R)-13-((1-((2-oxa-7-azaspiro[4.4]nonan-7-yl)methyl)cyclopropyl)methoxy)-1-fluoro-5,6,6a,7,8,9,10,11-octahydro-4-oxa-3,11a,12,14,15-pentaaza[7,10]methanocyclohepta[4,5]cycloocta[1,2,3-de]naphthalen-2-yl)-5-methyl-4-(trifluoromethyl)aniline]	< 0.3 nM	< 0.3 nM		
Nc1cc(Cl)c(C(F)(F)F)c(-c2nc3c4c(nc(OC[C@@]56CCCN5CC(=C(F)F)C6)nc4c2F)N2C[C@H]4CC[C@H](N4)[C@H]2CCO3)c1 [Example 201, 3-chloro-5-((6aR,7S,10R)-13-(((S)-2-(difluoromethylene)tetrahydro-1H-pyrrolizin-7a(5H)-yl)methoxy)-1-fluoro-5,6,6a,7,8,9,10,11-octahydro-4-oxa-3,11a,12,14,15-pentaaza-7,10-methanocyclohepta[4,5]cycloocta[1,2,3-de]naphthalen-2-yl)-4-(trifluoromethyl)aniline]	0.3 to 3 nM	< 0.3 nM		
Cc1cc(N)cc(-c2nc3c4c(nc(OCC5(CN6CCC[C@@H]6C)CC5)nc4c2F)N2C[C@H]4CC[C@H](N4)[C@H]2CCO3)c1C(F)(F)F [Example 123, 3-((6aR,7S,10R)-1-fluoro-13-((1-(((S)-2-methylpyrrolidin-1-yl)methyl)cyclopropyl)methoxy)-5,6,6a, 7,8,9,10,11-octahydro-4-oxa-3,11a,12,14,15-pentaaza-7,10-methanocyclohepta [4,5]cycloocta [1,2,3-de]naphthalen-2-yl)-5-methyl-4-(trifluoromethyl)aniline]	3 to 1000 nM	< 0.3 nM		
Cc1cc(N)cc(-c2nc3c4c(nc(O[C@@H](C)[C@@H]5CCCN5C5CCOCC5)nc4c2F)N2C[C@H]4CC[C@H](N4)[C@H]2CCO3)c1C(F)(F)F [Example 226, 3-((6aR,7S,10R)-1-fluoro-13-((S)-1-((S)-1-(tetrahydro-2H-pyran-4-yl)pyrrolidin-2-yl)ethoxy)-5,6,6a,7,8,9,10,11-octahydro-4-oxa-3,11a,12,14,15-pentaaza-7,10-methanocyclohepta[4,5]cycloocta[1,2,3-de]naphthalen-2-yl)-5-methyl-4-(trifluoromethyl)aniline]	3 to 1000 nM	< 0.3 nM		
Cc1cc(N)cc(-c2nc3c4c(nc(OCC5(CN6[C@@H]7CC[C@H]6CC(F)(F)C7)CC5)nc4c2F)N2C[C@H]4CC[C@H](N4)[C@H]2CCO3)c1C(F)(F)F [Example 175, 3-((6aR,7S,10R)-13-((1-(((1R,5S)-3,3-difluoro-8-azabicyclo[3.2.1]octan-8-yl)methyl)cyclopropyl)methoxy)-1-fluoro-5,6,6a,7,8,9,10,11-octahydro-4-oxa-3,11a,12,14,15-pentaaza-7,10-methanocyclohepta[4,5]cycloocta[1,2,3-de]naphthalen-2-yl)-5-methyl-4-(trifluoromethyl)aniline]	3 to 1000 nM	< 0.3 nM		
Cc1cc(N)cc(-c2nc3c4c(nc(OCC5(CN6CCOC[C@H]6C)CC5)nc4c2F)N2C[C@H]4CC[C@H](N4)[C@H]2CCO3)c1C(F)(F)F [Example 163, 3-((6aR,7S,10R)-1-fluoro-13-((1-(((R)-3-methylmorpholino)methyl)cyclopropyl)methoxy)-5,6,6a,7,8,9,10,11-octahydro-4-oxa-3,11a,12,14,15-pentaaza-7,10-methanocyclohepta[4,5]cycloocta[1,2,3-de]naphthalen-2-yl)-5-methyl-4-(trifluoromethyl)aniline]	3 to 1000 nM	< 0.3 nM		
Cc1cc(N)cc(-c2nc3c4c(nc(OCC56CC(F)CN5CC(F)C6)nc4c2F)N2C[C@H]4CC[C@H](N4)[C@H]2CCO3)c1C(F)(F)F (stereo partly drawn) [Example 6, 3-((6aR,7S,10R)-13-((2,6-difluorotetrahydro-1H-pyrrolizin-7a(5H)-yl)methoxy)-1-fluoro-5,6,6a,7,8,9,10,11-octahydro-4-oxa-3,11a,12,14,15-pentaaza-7,10-methanocyclohepta[4,5]cycloocta [1,2,3-de]naphthalen-2-yl)-5-methyl-4-(trifluoromethyl)aniline]	3 to 1000 nM	0.3 to 3 nM		
Cc1cc(N)cc(-c2nc3c4c(nc(OCC5(CN6CCOCC(F)C6)CC5)nc4c2F)N2C[C@H]4CC[C@H](N4)[C@H]2CCO3)c1C(F)(F)F (stereo partly drawn) [Example 153, 3-((6aR,7S,10R)-1-fluoro-13-((1-((6-fluoro-1,4-oxazepan-4-yl)methyl)cyclopropyl)methoxy)-5,6,6a,7,8,9,10,11-octahydro-4-oxa-3,11a,12,14,15-pentaaza-7,10-methano-cyclohepta[4,5]cycloocta [1,2,3-de]naphthalen-2-yl)-5-methyl-4-(trifluoromethyl) aniline]			3 to 1000 nM	< 0.3 nM
Nc1cc(Cl)c(C(F)(F)F)c(-c2nc3c4c(nc(OCC5(CN6CCC(=C(F)F)C6)CC5)nc4c2F)N2C[C@H]4CC[C@H](N4)[C@H]2CCO3)c1 [Example 151, 3-chloro-5-((6aR,7S,10R)-13-((1-((3-(difluoromethylene)pyrrolidin-1-yl)methyl)cyclopropyl)methoxy)-1-fluoro-5,6,6a,7,8,9,10,11-octahydro-4-oxa-3,11a,12,14,15-pentaaza-7,10-methano-cyclohepta[4,5]cycloocta [1,2,3-de]naphthalen-2-yl)-4-(trifluoromethyl)aniline]	3 to 1000 nM	< 0.3 nM		
Cc1cc(N)cc(-c2nc3c4c(nc(O[C@@H](C)[C@@H]5CCCN5C5COC5)nc4c2F)N2C[C@H]4CC[C@H](N4)[C@H]2CCO3)c1C(F)(F)F [Example 227, 3-((6aR,7S,10R)-1-fluoro-13-((S)-1-((S)-1-(oxetan-3-yl)pyrrolidin-2-yl)ethoxy)-5,6,6a,7,8,9,10,11-octahydro-4-oxa-3,11a,12,14,15-pentaaza-7,10-methanocyclohepta[4,5]cycloocta[1,2,3-de]naphthalen-2-yl)-5-methyl-4-(trifluoromethyl)aniline]	3 to 1000 nM	< 0.3 nM		
CN(C)C[C@]1(COc2nc3c4c(nc(-c5cc(N)cc(Cl)c5C(F)(F)F)c(F)c4n2)OCC[C@@H]2[C@@H]4CC[C@H](CN32)N4)CC1(F)F [Example 44, 3-chloro-5-((6aR,7S,10R)-13-(((S)-1-((dimethylamino)methyl)-2,2-difluorocyclopropyl)methoxy)-1-fluoro-5,6,6a,7,8,9,10,11-octahydro-4-oxa-3,11a,12,14,15-pentaaza-7,10-methanocyclohepta[4,5]cycloocta [1,2,3-de]naphthalen-2-yl)-4-(trifluoromethyl)aniline]	0.3 to 3 nM	< 0.3 nM		
COC1CN(C)CC(C)(COc2nc3c4c(nc(-c5cc(N)cc(C)c5C(F)(F)F)c(F)c4n2)OCC[C@@H]2[C@@H]4CC[C@H](CN32)N4)C1 (stereo partly drawn) [Example 126, 3-((6aR,7S,10R)-1-fluoro-13-((5-methoxy-1,3-dimethylpiperidin-3-yl)methoxy)-5,6,6a,7,8,9,10,11-octahydro-4-oxa-3,11a,12,14,15-pentaaza-7,10-methanocyclohepta[4,5]cycloocta[1,2,3-de]naphthalen-2-yl)-5-methyl-4-(trifluoromethyl)aniline]	3 to 1000 nM	0.3 to 3 nM		
Cc1cc(N)cc(-c2nc3c4c(nc(OCC5(CN6CCN(C7COC7)CC6)CC5)nc4c2F)N2C[C@H]4CC[C@H](N4)[C@H]2CCO3)c1C(F)(F)F [Example 191, 3-((6aR,7S,10R)-1-fluoro-13-((1-((4-(oxetan-3-yl)piperazin-1-yl)methyl)cyclopropyl)methoxy)-5,6,6a,7,8,9,10,11-octahydro-4-oxa-3,11a,12,14,15-pentaaza-7,10-methanocyclohepta[4,5]cycloocta[1,2,3-de]naphthalen-2-yl)-5-methyl-4-(trifluoromethyl)aniline]	3 to 1000 nM	< 0.3 nM		
Cc1cc(N)cc(-c2nc3c4c(nc(OCC5(CN6CCC(O)(C(F)(F)F)CC6)CC5)nc4c2F)N2C[C@H]4CC[C@H](N4)[C@H]2CCO3)c1C(F)(F)F [Example 114, 1-((1-((((6aR,7S,10R)-2-(5-amino-3-methyl-2-(trifluoromethyl)phenyl)-1-fluoro-5,6,6a,7,8,9,10,11-octahydro-4-oxa-3,11a,12,14,15-pentaaza-7,10-methanocyclohepta [4,5]cycloocta [1,2,3-de]naphthalen-13-yl)oxy)methyl)cyclopropyl)methyl)-4-(trifluoromethyl) piperidin-4-ol]	0.3 to 3 nM	< 0.3 nM		
CN(C)CC1(COc2nc3c4c(nc(-c5cc(N)cc(Cl)c5C(F)(F)F)c(F)c4n2)OCC[C@@H]2[C@@H]4CC[C@H](CN32)N4)CC1F (single isomer, unassigned) [Example 52]	0.3 to 3 nM	< 0.3 nM		
Cc1cc(N)cc(-c2nc3c4c(nc(OCC5(CN6C7COCC6C7)CC5)nc4c2F)N2C[C@H]4CC[C@H](N4)[C@H]2CCO3)c1C(F)(F)F [Example 104, 3-((6aR,7S,10R)-13-((1-((3-oxa-6-azabicyclo[3.1.1]heptan-6-yl)methyl)cyclopropyl)methoxy)-1-fluoro-5,6,6a,7,8,9,10,11-octahydro-4-oxa-3,11a,12,14,15-pentaaza-7,10-methanocyclohepta [4,5]cycloocta [1,2,3-de]naphthalen-2-yl)-5-methyl-4-(trifluoromethyl) aniline formate]			3 to 1000 nM	< 0.3 nM
